The values below come from PMC7941592 (Journal of natural products, 2021).

The subject of experiment [1] is multi-drug-resistant P. falciparum line Dd2. The format is cell-based, Plasmodium falciparum.
The subject of a further experiment is P. falciparum. The settings on record: read-out: EC50 against P. falciparum; cited from earlier work.

Where a SMILES comes first, the peptide text is derived from it. [ ]: non-standard residue; d: D form. The star is where a group is joined. X1 = CC(C)C[C@@H](C[N+]1=C2CCCN2CCC1)N*; dIva = CC[C@@](C)(N)C(=O)O; Pip = O=C(O)[C@@H]1CCCCN1; Aib = CC(C)(N)C(=O)O; βAla = NCCC(=O)O

For `CC[C@@](C)(NC(=O)[C@H](CC(C)C)NC(=O)[C@H](C)NC(=O)C(C)(C)NC(=O)[C@@H]1CCCCN1C(=O)C(C)(C)NC(=O)C(C)(C)NC(=O)CNC(=O)CCNC(=O)[C@H](CC(C)C)NC(=O)C(C)(C)NC(=O)C(C)(C)NC(=O)[C@@H]1CCCCN1C(=O)C(C)(C)NC(=O)[C@@H]1CCCCN1C(C)=O)C(=O)N[C@@H](CC(C)C)C[N+]1=C2CCCN2CCC1` [efrapeptin F (53), efrapeptin F] (Ac-[Pip][Aib][Pip][Aib][Aib]L[βAla]G[Aib][Aib][Pip][Aib]AL[dIva]-X1; N-terminus and C-terminus assumed), in experiment [1], the “antiplasmodial activity in words” value is on record as “submicromolar”. For the compound `CC[C@H](C)[C@@H](C(=O)O[C@@H](CC(C)C)C(=O)N[C@@H](CC(C)C)C(=O)N[C@@H](C)/C=C/C(=O)N1C(=O)C=C(OC)[C@@H]1C)N(C)C` [Gallinamide A], in the experiment on P. falciparum, the concentration for a half-maximal effect (EC50) (in general, the concentration needed to bring the measured effect to its halfway point) is 8.4 µM.
